Experimental findings from patent publication US8017612B2, “Piperazine compound and use thereof as a HCV polymerase inhibitor” (priority 2006, dated 2011) are described below.

In experiment [1] the target is T1, HCV polymerase (NS5B) type 1b (Hepatitis C virus genotype 1b, UniProt P26663).
T1 construct: a region encoding NS5B (J Virol 1991 March, 65(3), 1105-13, 544 amino acids after deletion of 47 amino acids on the C-terminal); 6xHis (C); made in house; host or cells: Escherichia coli
The experiment in a line: Assay of enzyme (HCV polymerase) inhibitory activity, type 1b enzyme. Format: biochemical, HCV BK strain (type 1b). The gist of the method:
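NS5B from HCV BK strain (type 1b), C-terminal 47 aa deleted, C-terminal His6-tagged, E. coli-expressed, 0.5 μg/ml, with ~450 nt substrate RNA carrying the 3′ UTR (polyU, 3′X) at 5 μg/ml. Incubation 60 min at 25 °C with 50 μM ATP/GTP/CTP, 2 μM UTP plus [3H]UTP, pH 7.5 Tris.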

Experiment [2] deals with T2, HCV polymerase (NS5B) type 1a (Hepatitis C virus genotype 1a, UniProt P26664).
T2 construct: made in house; host or cells: Escherichia coli (by the 'similar method' of the 1b enzyme)
The experiment in a line: Assay of enzyme (HCV polymerase) inhibitory activity, type 1a enzyme. It is filed as biochemical, HCV type 1a (cloned from the blood of patients). The procedure, abridged: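 Patient-derived type 1a NS5B (C-terminal 47-aa deletion, His-tagged, E. coli-expressed) at 1.5 μg/ml was reacted with 5 μg/ml 3′UTR-containing substrate RNA, 50 μM ATP/GTP/CTP, 2 μM UTP plus [3H]UTP, pH 7.5, 25° C for 60 min. TCA-precipitated RNA radioactivity was counted; IC50 from ± compound.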

[3] abbreviates: HCV polymerase inhibitory activity (IC50), 1b, type 1b enzyme 0.5 μg/ml, 25° C., 60 min.
Where [4] appears, read: HCV polymerase inhibitory activity (IC50), 1a, type 1a enzyme 1.5 μg/ml, 25° C., 60 min.
[5] abbreviates: HCV polymerase inhibitory activity IC50, 1b, type 1b enzyme.
The mark [6] stands for this setting: HCV polymerase inhibitory activity IC50, 1a, type 1a enzyme.

Where a name gives a salt, the structure may show the parent alone.

The term IC50 denotes the concentration at which inhibition is half-maximal. A higher IC50 goes with weaker potency. On to `CCC(F)(F)c1ccc(CNC(=O)[C@H]2CN(C(=O)Nc3nnc(CO)s3)CCN2S(=O)(=O)c2ccc(OC(F)(F)F)cc2)cc1` [Example 482, (R)-4-(4-trifluoromethoxy-benzenesulfonyl)-piperazine-1,3-dicarboxylic acid 3-[4-(1,1-difluoro-propyl)-benzylamide] 1-[(5-hydroxymethyl-[1,3,4]thiadiazol-2-yl)-amide]], for which the IC50 in experiment [1] (setting [3]) is less than 100 nM; in experiment [2] (setting [4]), 100 to 1000 nM.

Regarding `CC(=O)N1CCN(S(=O)(=O)c2ccc(C(C)C)cc2)C(C(=O)NCc2ccc(N3CCN(C)CC3)cc2)C1` (stereo not drawn) [Example 81, 4-acetyl-1-(4-isopropyl-benzenesulfonyl)-piperazine-2-carboxylic acid 4-(4-methyl-piperazin-1-yl)-benzylamide], the IC50 in experiment [1] (setting [3]) and in experiment [2] (setting [4]) was greater than 1000 nM each time.

As to `COC(=O)c1nc(Cl)c(N2CCN(S(=O)(=O)c3ccc(C(F)(F)F)cc3)[C@@H](C(=O)NCc3ccc(C(C)C)cc3)C2)nc1Br` [Example 421, (R)-6′-bromo-3′-chloro-3-(4-isopropyl-benzylcarbamoyl)-4-(4-trifluoromethyl-benzenesulfonyl)-3,4,5,6-tetrahydro-2H-[1,2′]bipyrazinyl-5′-carboxylic acid methyl ester], the IC50 in experiment [1] (setting [3]) and in experiment [2] (setting [4]) was greater than 1000 nM throughout.

For `CCCc1ccc(CNC(=O)[C@H]2CN(C(=O)Cn3nnc(CC(=O)OCC)n3)CCN2S(=O)(=O)c2ccc(OC(F)(F)F)cc2)cc1` [Example 455, (2-{2-oxo-2-[(R)-3-(4-propyl-benzylcarbamoyl)-4-(4-trifluoromethoxy-benzenesulfonyl)-piperazin-1-yl]-ethyl}-2H-tetrazol-5-yl)-acetic acid ethyl ester], the IC50 in experiment [1] (setting [3]) and in experiment [2] (setting [4]) was less than 100 nM each time.

As to `O=C(NCc1ccc(OC(F)(F)F)cc1)[C@H]1CN(c2nc3cnncc3s2)CCN1S(=O)(=O)c1ccc(C(F)(F)F)cc1` [Example 897, (R)-4-thiazolo[4,5-d]pyridazin-2-yl-1-(4-trifluoromethyl-benzenesulfonyl)-piperazine-2-carboxylic acid 4-trifluoromethoxy-benzylamide], the IC50 in experiment [1] (setting [5]) and in experiment [2] (setting [6]) was less than 100 nM throughout.

For `Cc1nc(N2CCN(S(=O)(=O)c3ccc(OC(F)(F)F)cc3)[C@@H](C(=O)NCc3ccc(N4CCCC4)cc3)C2)sc1C(=O)O` [Example 416, 4-methyl-2-[(R)-3-(4-pyrrolidin-1-yl-benzylcarbamoyl)-4-(4-trifluoromethoxy-benzenesulfonyl)-piperazin-1-yl]-thiazole-5-carboxylic acid], the 50% inhibitory concentration (IC50) in experiment [1] (setting [3]) is less than 100 nM; in experiment [2] (setting [4]) it was 100 to 1000 nM.

`COCCn1ncc2sc(N3CCN(S(=O)(=O)c4ccc(OC(F)(F)F)cc4)[C@@H](C(=O)NCc4ccc(OC(F)(F)F)cc4)C3)nc2c1=O` [Example 1071, (R)-4-[5-(2-methoxy-ethyl)-4-oxo-4,5-dihydro-thiazolo[4,5-d]pyridazin-2-yl]-1-(4-trifluoromethoxy-benzenesulfonyl)-piperazine-2-carboxylic acid 4-trifluoromethoxy-benzylamide]: the IC50 in experiment [1] (setting [5]) and in experiment [2] (setting [6]) was less than 100 nM in each case.

As to `CC(=O)N1CCN(S(=O)(=O)c2ccc(C(C)C)cc2)C(C(=O)NCc2ccc(C(F)(F)F)nc2)C1` (stereo not drawn) [Example 151, 4-acetyl-1-(4-isopropyl-benzenesulfonyl)-piperazine-2-carboxylic acid (6-trifluoromethyl-pyridin-3-ylmethyl)-amide], the IC50 in experiment [1] (setting [3]) and in experiment [2] (setting [4]) was greater than 1000 nM throughout.

With `CC(C)c1ccc(CNC(=O)[C@H]2CN(C(=O)Nc3ccnc(C(=O)O)c3)CCN2S(=O)(=O)c2ccc(C(F)(F)F)cc2)cc1` [Example 314, 4-{[(R)-3-(4-isopropyl-benzylcarbamoyl)-4-(4-trifluoromethyl-benzenesulfonyl)-piperazine-1-carbonyl]-amino}-pyridine-2-carboxylic acid hydrochloride], the IC50 in experiment [1] (setting [3]) and in experiment [2] (setting [4]) was 100 to 1000 nM throughout.

`CC(=O)N1CCN(S(=O)(=O)c2ccc(OC(F)(F)F)cc2)[C@@H](C(=O)NCc2ccc(CCCO)cc2)C1` [Example 702, (R)-4-acetyl-1-(4-trifluoromethoxy-benzenesulfonyl)-piperazine-2-carboxylic acid 4-(3-hydroxy-propyl)-benzylamide]: the IC50 in experiment [1] (setting [5]) and in experiment [2] (setting [6]) was greater than 1000 nM each time.

With `Cc1nc(N2CCN(S(=O)(=O)c3ccc(OC(F)(F)F)cc3)[C@@H](C(=O)NCc3ccc(OC(F)(F)F)cc3)C2)sc1C(=O)O` [Example 365, 4-methyl-2-[(R)-4-(4-trifluoromethoxy-benzenesulfonyl)-3-(4-trifluoromethoxy-benzylcarbamoyl)-piperazin-1-yl]-thiazole-5-carboxylic acid], the IC50 in experiment [1] (setting [3]) and in experiment [2] (setting [4]) was less than 100 nM throughout.

As for `CC(C)c1ccc(S(=O)(=O)N2CCN(C3=NCCN3)CC2C(=O)NCc2ccc(C(F)(F)F)cc2)cc1` (stereo not drawn) [Example 103, 4-(4,5-dihydro-1H-imidazol-2-yl)-1-(4-isopropyl-benzenesulfonyl)-piperazine-2-carboxylic acid 4-trifluoromethyl-benzylamide], the half-inhibitory concentration (IC50) in experiment [1] (setting [3]) and in experiment [2] (setting [4]) was greater than 1000 nM in each case.

For the compound `Cc1cc(=O)nc2sc(N3CCN(S(=O)(=O)c4ccc(C(F)(F)F)cc4)[C@@H](C(=O)NCc4ccc(OC(F)(F)F)cc4)C3)nn12` [Example 1028, (R)-4-(5-methyl-7-oxo-7H-[1,3,4]thiadiazolo[3,2-a]pyrimidin-2-yl)-1-(4-trifluoromethyl-benzenesulfonyl)-piperazine-2-carboxylic acid 4-trifluoromethoxy-benzylamide], the IC50 in experiment [1] (setting [5]) and in experiment [2] (setting [6]) was less than 100 nM throughout.

Regarding `CCCc1ccc(CNC(=O)[C@H]2CN(c3cnc(C(=O)O)cn3)CCN2S(=O)(=O)c2ccc(CCC)s2)cc1` [Example 438, (R)-3-(4-propyl-benzylcarbamoyl)-4-(5-propyl-thiophene-2-sulfonyl)-3,4,5,6-tetrahydro-2H-[1,2′]bipyrazinyl-5′-carboxylic acid], the IC50 in experiment [1] (setting [3]) and in experiment [2] (setting [4]) was less than 100 nM each time.

In the case of `O=C(NCc1ccc(OC(F)(F)F)cc1)[C@H]1CN(c2nc3nc(Cl)[nH]c(=O)c3s2)CCN1S(=O)(=O)c1ccc(OC(F)(F)F)cc1` [Example 963, (R)-4-(5-chloro-7-oxo-6,7-dihydro-thiazolo[4,5-d]pyrimidin-2-yl)-1-(4-trifluoromethoxy-benzenesulfonyl)-piperazine-2-carboxylic acid 4-trifluoromethoxy-benzylamide], the IC50 in experiment [1] (setting [5]) and in experiment [2] (setting [6]) was less than 100 nM throughout.

In the case of `O=C(NCc1ccc(OC(F)(F)F)cc1)[C@H]1CN(c2nc3nc(CO)ncc3s2)CCN1S(=O)(=O)c1ccc(C(F)(F)F)cc1` [Example 1052, (R)-4-(5-hydroxymethyl-thiazolo[4,5-d]pyrimidin-2-yl)-1-(4-trifluoromethyl-benzenesulfonyl)-piperazine-2-carboxylic acid 4-trifluoromethoxy-benzylamide], the IC50 in experiment [1] (setting [5]) and in experiment [2] (setting [6]) was less than 100 nM each time.

Regarding `CC(=O)N1CCN(S(=O)(=O)c2ccc(C(C)C)cc2)C(C(=O)NCc2ccc(N)cc2)C1` (stereo not drawn) [Example 90, 4-acetyl-1-(4-isopropyl-benzenesulfonyl)-piperazine-2-carboxylic acid 4-amino-benzylamide], the half-inhibitory concentration (IC50) in experiment [1] (setting [3]) and in experiment [2] (setting [4]) was greater than 1000 nM each time.

`CCCc1ccc(CNC(=O)[C@H]2CN(c3ccc(C(=O)O)c(C)n3)CCN2S(=O)(=O)c2ccc(OC(F)(F)F)cc2)cc1` [Example 822, 2-methyl-6-[(R)-3-(4-propyl-benzylcarbamoyl)-4-(4-trifluoromethoxy-benzenesulfonyl)-piperazin-1-yl]-nicotinic acid]: the IC50 in experiment [1] (setting [5]) and in experiment [2] (setting [6]) was less than 100 nM in each case.

For the compound `CCC(CC)c1ccc(S(=O)(=O)N2CCN(C(C)=O)CC2C(=O)NCc2ccc(C(F)(F)F)cc2)cc1` (stereo not drawn) [Example 162, 4-acetyl-1-[4-(1-ethyl-propyl)-benzenesulfonyl]-piperazine-2-carboxylic acid 4-trifluoromethyl-benzylamide], the IC50 in experiment [1] (setting [3]) and in experiment [2] (setting [4]) was greater than 1000 nM throughout.

Consider `CC(=O)N1CCN(S(=O)(=O)c2ccc(C(C)C)cc2)[C@@H](C(=O)NCc2ccc(-c3ccoc3)cc2)C1` [Example 481, (R)-4-acetyl-1-(4-isopropyl-benzenesulfonyl)-piperazine-2-carboxylic acid 4-furan-3-yl-benzylamide], for which the half-inhibitory concentration (IC50) in experiment [1] (setting [3]) and in experiment [2] (setting [4]) was 100 to 1000 nM each time.

`CC(C)(C)c1ccc(CNC(=O)[C@H]2CN(c3cnc(CN4CCOCC4)cn3)CCN2S(=O)(=O)c2ccc(OC(F)(F)F)cc2)cc1` [Example 593, (R)-5′-morpholin-4-ylmethyl-4-(4-trifluoromethoxy-benzenesulfonyl)-3,4,5,6-tetrahydro-2H-[1,2′]bipyrazinyl-3-carboxylic acid 4-tert-butyl-benzylamide]: the IC50 in experiment [1] (setting [3]) and in experiment [2] (setting [4]) was less than 100 nM in each case.
